The text below walks through data of ChEMBL document CHEMBL5113414, “New TRPM8 blockers exert anticancer activity over castration-resistant prostate cancer models” (Eur J Med Chem, 2022).

SMILES strings stand for the structures. Active and inactive are the calls of the source. No cut-off for these calls is given here.

Assay [1] addresses T1, Transient receptor potential cation channel subfamily M member 8 (Rattus norvegicus, UniProt Q8R455). Kind of assay: Antagonist activity at rat TRPM8 channel transfected in HEK293 cells assessed as inhibition of calcium currents by Fluo-4 NW dye based fluorimetric assay. It is filed as cell-based.
In assay [2] the target is T1, Transient receptor potential cation channel subfamily M member 8. Kind of assay: Antagonist activity at rat TRPM8 channel transfected in HEK293 cells assessed as inhibition of menthol-induced calcium currents at -60 mV measured for 90 secs by whole cell patch clamp method. The class given is cell-based. For orientation: The patch-clamp technique gives a direct electrical read-out from membranes.

Assay [3] concerns the target Transient receptor potential cation channel subfamily M member 8 (Rattus norvegicus) (UniProt Q8R455). The assay is described as follows: Inhibition of rat TRPM8 channel transfected in HEK293 cells assessed as inhibition of menthol-induced calcium currents at 0.01 to 10 uM at -60 mV measured for 90 secs by whole cell patch clamp method. It is filed as cell-based. The conditions noted are these: dose 0.01-10 µM, time 90.0 sec, DDE = dose-dependent effect.

Assay [4] concerns CWR22R. The assay is described as follows: Inhibition of R1881-induced DNA synthesis in human 22Rv1 cells at 1 to 10 uM incubated for 18 hrs by BrdU incorporation assay. The class given is functional, cell-based. The conditions noted are these: dose 1-10 µM. On the technique in general: Dividing cells build labelled thymidine or BrdU into new DNA.
The subject of assay [5] is LNCaP C4-2B. Kind of assay: Inhibition of androgen-resistant human LNCaP C4-2B cells at 1 uM incubated for 18 hrs by BrdU incorporation assay. It is filed as functional, cell-based.
Assay [6] relates to PNT2. Kind of assay: Inhibition of R1881-induced DNA synthesis in human PNT2 cells at 10 uM incubated for 18 hrs by BrdU incorporation assay. The class given is functional, cell-based.
Assay [7] deals with PNT2. The assay is described as follows: Inhibition of DNA synthesis in human PNT2 cells at 0.01 to 10 uM incubated for 18 hrs by BrdU incorporation assay. It is filed as functional, cell-based. The conditions noted are these: dose 0.01-10 µM.
The test system of a further assay is PC-3. The assay is described as follows: Inhibition of DNA synthesis in human PC-3 cells at 0.01 to 10 uM incubated for 18 hrs by BrdU incorporation assay. It is filed as functional, cell-based. Particulars: dose 0.01-10 µM.
For assay [8], the system named is LNCaP. The assay is described as follows: Inhibition of R1881-induced cell spheroid size of human LNCaP cells at 1 uM with medium replacement for every 3 days incubated for 17 days by phase contrast microscopy. It is filed as functional, cell-based. The conditions noted are these: time 17.0 day.
Assay [9] relates to CWR22R. Kind of assay: Inhibition of R1881-induced cell spheroid size of human 22Rv1 cells at 1 uM with medium replacement for every 3 days incubated for 17 days by phase contrast microscopy. It is filed as functional, cell-based. Particulars: time 17.0 day.
Assay [10] relates to LNCaP. Kind of assay: Inhibition of R1881-induced DNA synthesis in human LNCaP cells at 0.01 to 10 uM incubated for 18 hrs by BrdU incorporation assay. The class given is functional, cell-based. The conditions noted are these: dose 0.01-10 µM.
The subject of assay [11] is PNT2. The assay is described as follows: Inhibition of R1881-induced DNA synthesis in human PNT2 cells at 1 uM incubated for 18 hrs by BrdU incorporation assay. The class given is functional, cell-based.
For assay [12], the system named is LNCaP C4-2B. The assay is described as follows: Inhibition of androgen-resistant human LNCaP C4-2B cells at 0.1 uM incubated for 18 hrs by BrdU incorporation assay. It is filed as functional, cell-based.

Chain of Transient receptor potential cation channel subfamily M member 8 (Rattus norvegicus) (Q8R455 whole entry, looked up): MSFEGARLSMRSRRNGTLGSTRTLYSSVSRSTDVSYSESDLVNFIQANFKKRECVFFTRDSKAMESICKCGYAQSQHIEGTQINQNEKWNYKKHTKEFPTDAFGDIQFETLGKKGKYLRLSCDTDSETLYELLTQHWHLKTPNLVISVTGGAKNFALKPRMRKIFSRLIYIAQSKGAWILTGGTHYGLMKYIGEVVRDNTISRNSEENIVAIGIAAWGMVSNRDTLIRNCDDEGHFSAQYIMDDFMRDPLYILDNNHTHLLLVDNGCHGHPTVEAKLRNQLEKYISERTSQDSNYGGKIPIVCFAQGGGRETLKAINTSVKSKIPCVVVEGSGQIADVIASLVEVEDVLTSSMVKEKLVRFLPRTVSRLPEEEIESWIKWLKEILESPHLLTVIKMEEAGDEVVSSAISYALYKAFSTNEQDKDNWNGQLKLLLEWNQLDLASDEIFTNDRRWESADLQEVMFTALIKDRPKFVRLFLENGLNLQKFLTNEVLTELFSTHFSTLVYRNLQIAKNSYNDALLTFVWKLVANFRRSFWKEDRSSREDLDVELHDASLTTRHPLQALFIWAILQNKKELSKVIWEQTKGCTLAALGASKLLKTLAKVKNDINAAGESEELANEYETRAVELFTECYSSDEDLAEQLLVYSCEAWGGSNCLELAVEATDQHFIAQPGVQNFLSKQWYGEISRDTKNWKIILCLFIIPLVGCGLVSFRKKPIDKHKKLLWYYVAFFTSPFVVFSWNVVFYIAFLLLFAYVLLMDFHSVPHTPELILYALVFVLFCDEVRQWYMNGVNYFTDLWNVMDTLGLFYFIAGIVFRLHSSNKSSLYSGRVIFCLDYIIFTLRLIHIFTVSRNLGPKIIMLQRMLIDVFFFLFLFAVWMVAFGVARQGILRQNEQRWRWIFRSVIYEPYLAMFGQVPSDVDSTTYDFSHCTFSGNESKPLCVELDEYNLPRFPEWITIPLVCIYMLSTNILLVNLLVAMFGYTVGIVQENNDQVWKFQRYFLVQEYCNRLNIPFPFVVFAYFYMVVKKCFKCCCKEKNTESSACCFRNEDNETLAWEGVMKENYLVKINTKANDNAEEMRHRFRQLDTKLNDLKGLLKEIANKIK
T1 sequence (Q8R455 whole entry): as the sequence (Q8R455 whole entry, looked up) above

In the case of `COC(=O)[C@H](Cc1ccc(O)c(O)c1)N(Cc1ccccc1)Cc1ccccc1`, the IC50 was determined as 490 nM in assay [1] and 100 nM in [2]. Besides, in [3], the inhibition entry was “Dde”. Further, the inhibition result in the assay on CWR22R [4], in the assay with LNCaP C4-2B [5], with PNT2 [6], in the assay with PNT2 [7], in the assay with PC-3 and with LNCaP [8] was “Active” in each case. In addition, the inhibition result in the assay on CWR22R [9] was “Active”.

For `O=C1[C@@H]2Cc3cc(O)c(O)cc3[C@@H](c3ccc(F)cc3)N2C(=O)N1Cc1ccc(F)cc1`, the IC50 in assay [1] came to 1700 nM.

Turning to `O=C(NCc1ccc(F)cc1)[C@@H]1Cc2cc(O)c(O)cc2[C@@H](c2ccc(F)cc2)N1`, in [1], the IC50 is 850 nM.

Turning to `COC(=O)[C@H](Cc1ccc(N)cc1)N(Cc1ccccc1)Cc1ccccc1`, the IC50 in assay [1] came to 210 nM; in [2], 110 nM. Also, in assay [3], the inhibition result was “Dde”. Besides, the inhibition result in the assay with LNCaP [10], in the assay with CWR22R [4], in the assay with LNCaP C4-2B [5], with PNT2 [6], with PNT2 [11] and with PNT2 [7] was “Active” in each case. The inhibition result in the assay on PC-3, in the assay on LNCaP [8] and with CWR22R [9] was “Active” each time.

Regarding `COC(=O)[C@H](Cc1ccc([N+](=O)[O-])cc1)N(Cc1ccccc1)Cc1ccccc1`, the IC50 in [1] is 110 nM; in assay [2] it was 60 nM. In assay [3], the inhibition result was “Dde”. In addition, the inhibition result in the assay on LNCaP [10], in the assay with CWR22R [4], with LNCaP C4-2B [5], in the assay on LNCaP C4-2B [12], in the assay with PNT2 [6] and in the assay with PNT2 [7] was “Active” each time. Moreover, the inhibition entry in the assay with PC-3, in the assay with LNCaP [8] and in the assay on CWR22R [9] was “Active” throughout.

As for `O=C1[C@@H]2Cc3cc(O)c(O)cc3[C@@H](c3ccc(F)cc3)N2C(=O)N1c1cccc(C(F)(F)F)c1`, the IC50 in assay [1] stood at 1200 nM.

For `O=C1[C@H]2Cc3cc(O)c(O)cc3[C@H](c3ccc(F)cc3)N2C(=O)N1c1cccc(C(F)(F)F)c1`, the IC50 in assay [1] was determined as 2100 nM.

Consider `COC(=O)[C@H](Cc1ccc(Cl)cc1)N(Cc1ccccc1)Cc1ccccc1`, for which, in [1], the IC50 was 280 nM.

Take `O=C(NCc1ccc(F)cc1)[C@@H]1Cc2cc(O)c(O)cc2[C@H](c2ccc(F)cc2)N1`: the IC50 in assay [1] is 17500 nM.

As for `COC(=O)[C@H](Cc1ccccc1)N(Cc1ccccc1)Cc1ccccc1`, the IC50 in [1] was found to be 320 nM.

With `O=C1[C@H]2Cc3cc(O)c(O)cc3[C@H](c3ccc(F)cc3)N2C(=O)N1Cc1ccc(F)cc1`, the IC50 in assay [1] is 2200 nM.

Consider `COC(=O)[C@H](Cc1ccc(C)cc1)N(Cc1ccccc1)Cc1ccccc1`, for which the IC50 in [1] came to 290 nM.

For the compound `COC(=O)[C@H](Cc1ccc(O)cc1)N(Cc1ccccc1)Cc1ccccc1`, the IC50 in assay [1] was found to be 250 nM.

Usually IC50 stands for the concentration at which inhibition is half-maximal.
